Assay results taken from ChEMBL document CHEMBL1132511, “Stereospecific synthesis of a GS 4104 metabolite: determination of absolute stereochemistry and influenza neuraminidase inhibitory activity” (Bioorg Med Chem Lett, 1999).

Columns and labels:
Influenza B virus = assay: In vitro inhibitory activity against influenza B neuraminidase using enzymatic assay; assay type: functional
[1] = target: Neuraminidase (Influenza A virus (A/Puerto Rico/8/1934(H1N1)), UniProt P03468); assay: In vitro inhibitory activity against influenza A neuraminidase using enzymatic assay
Sequence of Neuraminidase (Influenza A virus (A/Puerto Rico/8/1934(H1N1)), UniProt P03468) (P03468 whole entry): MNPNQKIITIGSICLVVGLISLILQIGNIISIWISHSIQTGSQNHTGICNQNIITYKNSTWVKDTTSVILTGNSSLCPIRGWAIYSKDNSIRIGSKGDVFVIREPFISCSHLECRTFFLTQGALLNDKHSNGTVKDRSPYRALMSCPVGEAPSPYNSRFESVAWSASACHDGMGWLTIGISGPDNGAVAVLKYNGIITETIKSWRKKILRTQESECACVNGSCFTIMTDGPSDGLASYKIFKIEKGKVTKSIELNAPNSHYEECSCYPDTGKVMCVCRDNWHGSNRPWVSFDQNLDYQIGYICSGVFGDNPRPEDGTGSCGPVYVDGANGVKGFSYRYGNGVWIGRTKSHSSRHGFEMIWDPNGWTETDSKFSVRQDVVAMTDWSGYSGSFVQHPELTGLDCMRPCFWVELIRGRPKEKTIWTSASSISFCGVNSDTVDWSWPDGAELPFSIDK

| Compound | IC50 (Influenza B virus) [µM] | IC50 [1] [µM] |
| --- | --- | --- |
| CCC(CC)O[C@@H]1C=C(C(=O)O)C[C@H](N)[C@H]1NC(C)=O [OSELTAMIVIR CARBOXYLATE] | 0.004 | – |
| CC[C@H](CC(=O)O)O[C@@H]1C=C(C(=O)O)C[C@H](N)[C@H]1NC(C)=O | – | 1.15 |
| CC[C@H](CCO)O[C@@H]1C=C(C(=O)O)C[C@H](N)[C@H]1NC(C)=O | 0.4 | 0.04 |
| CC[C@@H](CCO)O[C@@H]1C=C(C(=O)O)C[C@H](N)[C@H]1NC(C)=O | 0.085 | 0.03 |
| CC[C@@H](CC(=O)O)O[C@@H]1C=C(C(=O)O)C[C@H](N)[C@H]1NC(C)=O | – | 0.45 |
